Results: patent US12606541B2, “PPARg modulators and methods of use” (Eisai R&D Management Co., Ltd., priority 2020, dated 2026)
Where two headings read alike, the source gives them in different places.

Assays:
UM-UC-9 engineered cells = experiment: Cell proliferation / short-term viability assay, CellTiter-Glo 144 h; format: cell-based, human; conditions: read-out: CTGlo 144 h UMUC9.5, G150
How it was run: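 UM-UC-9 engineered assay-ready cells seeded at 500 cells/well in high-glucose DMEM/10% FBS, treated from dose-response plates, grown at 37° C, 5% CO2. CellTiter-Glo 2.0 luminescence read on day 7, with a day-0 pretreatment plate as T0 reference and DMSO wells as negative control.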

His6-TEV-PPARγ-(234-505) = molecular target: T1, His6-TEV-PPARγ-(234-505) (Homo sapiens, UniProt P37231); experiment: TR-FRET Assay to Measure Co-R Peptide Recruitment to PPARγ; format: biochemical; conditions: Co-R peptide (SMRT-ID2) recruitment; top final concentration 20 μM; read-out: TR-FRET i-Ag; AC50
T1 construct: The His6-TEV-PPARγ-(234-505) protein for assay was expressed and purified; TEV cleavage site (N); made in house
T1 sequence (P37231 234-505): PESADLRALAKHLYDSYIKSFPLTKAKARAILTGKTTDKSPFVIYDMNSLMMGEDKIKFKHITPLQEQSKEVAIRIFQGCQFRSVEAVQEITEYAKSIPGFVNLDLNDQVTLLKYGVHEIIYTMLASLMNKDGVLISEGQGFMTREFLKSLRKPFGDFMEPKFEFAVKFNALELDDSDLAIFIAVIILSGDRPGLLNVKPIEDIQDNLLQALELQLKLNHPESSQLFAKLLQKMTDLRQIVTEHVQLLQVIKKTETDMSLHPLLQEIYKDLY
How it was run: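 His-tagged PPARγ (or controls) was preincubated with compound for 20 minutes at room temperature, then 5 nM anti-His terbium antibody and 200 nM FITC-labeled SMRT-ID2 corepressor peptide (final) were added for a further hour. TR-FRET signal was normalized to percent response using 500 nM T0070907 and DMSO controls.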

Molecule: COc1cc(-c2cc(C(=O)N3CCC(C(=O)NC4CCOc5ccc(C)nc54)CC34CC4)n[nH]2)c(F)cn1 (mixture of isomers) [Example 380, (S)-4-(5-(5-fluoro-2-methoxypyridin-4-yl)-1H-pyrazole-3-carbonyl)-N—((R)-6-methyl-3,4-dihydro-2H-pyrano[3,2-b]pyridin-4-yl)-4-azaspiro[2.5]octane-7-carboxamide and (S)-4-(5-(5-fluoro-2-methoxypyridin-4-yl)-1H-pyrazole-3-carbonyl)-N—((S)-6-methyl-3,4-dihydro-2H-pyrano[3,2-b]pyridin-4-yl)-4-azaspiro[2.5]octane-7-carboxamide]
- IC50 (UM-UC-9 engineered cells): 0.0437 µM
- AC50 (His6-TEV-PPARγ-(234-505)): 0.0306 µM

Molecule: COc1cc(-c2cc(C(=O)N3CC[C@H](C(=O)NCc4c(C(F)(F)F)nn(C)c4Cl)CC34CC4)[nH]n2)c(F)cn1 [Example 526, (S)—N-((5-chloro-1-methyl-3-(trifluoromethyl)-1H-pyrazol-4-yl)methyl)-4-(3-(5-fluoro-2-methoxypyridin-4-yl)-1H-pyrazole-5-carbonyl)-4-azaspiro[2.5]octane-7-carboxamide]
- IC50 (UM-UC-9 engineered cells; Homo sapiens, UM-UC-9, 144 h): 0.0071 µM
- AC50 (His6-TEV-PPARγ-(234-505)): 0.0037 µM

Molecule: COc1cc(-c2cc(C(=O)N3CCC(C(=O)NC4CN(CC5(O)CC5)CC4(F)F)CC34CC4)n[nH]2)c(F)cn1 (mixture of isomers) [Example 470, (S)—N—((R)-4,4-difluoro-1-((1-hydroxycyclopropyl)methyl)pyrrolidin-3-yl)-4-(3-(5-fluoro-2-methoxypyridin-4-yl)-1-pyrazole-5-carbonyl)-4-azaspiro[2.5]octane-7-carboxamide and (S)—N—((S)-4,4-difluoro-1-((1-hydroxycyclopropyl)methyl)pyrrolidin-3-yl)-4-(3-(5-fluoro-2-methoxypyridin-4-yl)-1H-pyrazole-5-carbonyl)-4-azaspiro[2.5]octane-7-carboxamide]
- IC50 (UM-UC-9 engineered cells): 0.897 µM
- AC50 (His6-TEV-PPARγ-(234-505)): 0.112 µM

Molecule: COc1cc(-c2cc(C(=O)N3CCC(C(=O)NCc4cccc(F)c4)CC3)n[nH]2)c(Cl)cn1 [Example 157, 1-(5-(5-chloro-2-methoxypyridin-4-yl)-1H-pyrazole-3-carbonyl)-N-(3-fluorobenzyl)piperidine-4-carboxamide]
- IC50 (UM-UC-9 engineered cells; Homo sapiens, UM-UC-9, 144 h): 0.212 µM
- AC50 (His6-TEV-PPARγ-(234-505)): 0.13 µM

Molecule: COc1cc(-c2cc(C(=O)N3CCC(C(=O)NCc4cc5cc[nH]c5cn4)CC3)n[nH]2)c(Cl)cn1 [Example 212, N-((1H-pyrrolo[2,3-c]pyridin-5-yl)methyl)-1-(5-(5-chloro-2-methoxypyridin-4-yl)-1H-pyrazole-3-carbonyl)piperidine-4-carboxamide]
- IC50 (UM-UC-9 engineered cells; Homo sapiens, UM-UC-9, 144 h): 0.782 µM
- AC50 (His6-TEV-PPARγ-(234-505)): 0.0792 µM

Molecule: COc1cc(-c2cc(C(=O)N3CCC(C(=O)NC4C(=O)NCc5ccccc54)CC3)n[nH]2)c(Cl)cn1 (racemic) [Example 244, 1-(5-(5-chloro-2-methoxypyridin-4-yl)-1H-pyrazole-3-carbonyl)-N-(3-oxo-1,2,3,4-tetrahydroisoquinolin-4-yl)piperidine-4-carboxamide]
- IC50 (UM-UC-9 engineered cells; Homo sapiens, UM-UC-9, 144 h): 5.56 µM
- AC50 (His6-TEV-PPARγ-(234-505)): 0.605 µM

Molecule: COc1cc(-c2cc(C(=O)N3CCC(C(=O)N[C@H](C)c4cccc(F)c4)CC3)n[nH]2)c(Cl)cn1 [Example 153, (R)-1-(5-(5-chloro-2-methoxypyridin-4-yl)-1H-pyrazole-3-carbonyl)-N-(1-(3-fluorophenyl)ethyl)piperidine-4-carboxamide]
- IC50 (UM-UC-9 engineered cells; Homo sapiens, UM-UC-9, 144 h): 2.09 µM
- AC50 (His6-TEV-PPARγ-(234-505)): 0.621 µM

Molecule: COc1cc(-c2cc(C(=O)N3CC[C@H](C(=O)NCc4ncc(N5CC6CC5CN6)cc4Cl)CC34CC4)n[nH]2)c(F)cn1 (single isomer, unassigned) [Example 462-B]
- IC50 (UM-UC-9 engineered cells): 0.573 µM
- AC50 (His6-TEV-PPARγ-(234-505)): 0.0144 µM

Molecule: CCO[C@]1(C(F)(F)F)CC[C@H](NC(=O)[C@@H]2CCN(C(=O)c3cc(-c4cc(C)ncn4)[nH]n3)C3(CC3)C2)CC1 (single isomer, unassigned) [Example 308-F]
- IC50 (UM-UC-9 engineered cells; Homo sapiens, UM-UC-9, 144 h): 0.192 µM
- AC50 (His6-TEV-PPARγ-(234-505)): 6.36 µM

Molecule: (1R,3s,5S)—N-(3-chlorobenzyl)-8-(5-(5-fluoro-2-methoxypyridin-4-yl)-1H-pyrazole-3-carbonyl)-8-azabicyclo[3.2.1]octane-3-carboxamide and (1R,3r,5S)—N-(3-chlorobenzyl)-8-(5-(5-fluoro-2-methoxypyridin-4-yl)-1H-pyrazole-3-carbonyl)-8-azabicyclo[3.2.1]octane-3-carboxamide [Example 160]
- IC50 (UM-UC-9 engineered cells): 0.0206 µM
- AC50 (His6-TEV-PPARγ-(234-505)): 0.0116 µM

Molecule: COc1cc(-c2cc(C(=O)N3CC[C@H](C(=O)NCc4ncc(F)cn4)CC34CC4)[nH]n2)c(F)cn1 [Example 512, (S)-4-(3-(5-fluoro-2-methoxypyridin-4-yl)-1H-pyrazole-5-carbonyl)-N-((5-fluoropyrimidin-2-yl)methyl)-4-azaspiro[2.5]octane-7-carboxamide]
- IC50 (UM-UC-9 engineered cells; Homo sapiens, UM-UC-9, 144 h): 0.0972 µM
- AC50 (His6-TEV-PPARγ-(234-505)): 0.0112 µM

Molecule: COc1cc(-c2cc(C(=O)N3CCC(C(=O)NC(C)C45CCC(O)(CC4)CC5)CC34CC4)n[nH]2)c(F)cn1 (mixture of isomers) [Example 411, (S)-4-(5-(5-fluoro-2-methoxypyridin-4-yl)-1H-pyrazole-3-carbonyl)-N—((R)-1-(4-hydroxybicyclo[2.2.2]octan-1-yl)ethyl)-4-azaspiro[2.5]octane-7-carboxamide and (S)-4-(5-(5-fluoro-2-methoxypyridin-4-yl)-1H-pyrazole-3-carbonyl)-N—((S)-1-(4-hydroxybicyclo[2.2.2]octan-1-yl)ethyl)-4-azaspiro[2.5]octane-7-carboxamide]
- IC50 (UM-UC-9 engineered cells): 0.0601 µM
- AC50 (His6-TEV-PPARγ-(234-505)): 0.0372 µM

Molecule: COc1cc(-c2cc(C(=O)N3CCC(C(=O)NC4CCC(O)(C(F)(F)F)CC4)CC34CC4)n[nH]2)ncn1 (single isomer, unassigned) [Example 338-B]
- IC50 (UM-UC-9 engineered cells): 1.32 µM
- AC50 (His6-TEV-PPARγ-(234-505)): 0.723 µM

Molecule: COc1cc(-c2cc(C(=O)N3CCC(C(=O)NCC4CC(C)(C)O4)CC3)n[nH]2)c(Cl)cn1 (racemic) [Example 135, 1-(5-(5-chloro-2-methoxypyridin-4-yl)-1H-pyrazole-3-carbonyl)-N-((4,4-dimethyloxetan-2-yl)methyl)piperidine-4-carboxamide]
- IC50 (UM-UC-9 engineered cells; Homo sapiens, UM-UC-9, 144 h): 2.65 µM
- AC50 (His6-TEV-PPARγ-(234-505)): 0.483 µM

Molecule: COc1cc(-c2cc(C(=O)N3CCC(C(=O)NCc4c[nH]c5ncccc45)CC3)n[nH]2)c(Cl)cn1 [Example 202, N-((1H-pyrrolo[2,3-b]pyridin-3-yl)methyl)-1-(5-(5-chloro-2-methoxypyridin-4-yl)-1H-pyrazole-3-carbonyl)piperidine-4-carboxamide]
- IC50 (UM-UC-9 engineered cells; Homo sapiens, UM-UC-9, 144 h): 1.59 µM
- AC50 (His6-TEV-PPARγ-(234-505)): 0.136 µM

Molecule: COc1cc(-c2cc(C(=O)N3CC[C@H](C(=O)NCC45COC(C(F)(F)F)(C4)C5)CC34CC4)n[nH]2)c(F)cn1 [Example 443, (S)-4-(5-(5-fluoro-2-methoxypyridin-4-yl)-1H-pyrazole-3-carbonyl)-N-((1-(trifluoromethyl)-2-oxabicyclo[2.1.1]hexan-4-yl)methyl)-4-azaspiro[2.5]octane-7-carboxamide]
- IC50 (UM-UC-9 engineered cells; Homo sapiens, UM-UC-9, 144 h): 0.0403 µM
- AC50 (His6-TEV-PPARγ-(234-505)): 0.0214 µM

Molecule: CCc1cc(-c2cc(C(=O)N3[C@@H]4CC[C@H]3C[C@H](C(=O)N[C@H]3CC[C@@](O)(C(F)(F)F)CC3)C4)n[nH]2)ccn1 [Example 316, (1R,3s,5S)-8-(5-(2-ethylpyridin-4-yl)-1H-pyrazole-3-carbonyl)-N-((1r,4R)-4-hydroxy-4-(trifluoromethyl)cyclohexyl)-8-azabicyclo[3.2.1]octane-3-carboxamide]
- IC50 (UM-UC-9 engineered cells; Homo sapiens, UM-UC-9, 144 h): 3.39 µM
- AC50 (His6-TEV-PPARγ-(234-505)): 0.0679 µM

Molecule: COc1cc(-c2cc(C(=O)N3CCC(C(=O)NC4CCOc5ncccc54)CC3)n[nH]2)c(Cl)cn1 (racemic) [Example 236, 1-(5-(5-chloro-2-methoxypyridin-4-yl)-1H-pyrazole-3-carbonyl)-N (3,4-dihydro-2H-pyrano[2,3-b]pyridin-4-yl)piperidine-4-carboxamide]
- IC50 (UM-UC-9 engineered cells; Homo sapiens, UM-UC-9, 144 h): 5.36 µM
- AC50 (His6-TEV-PPARγ-(234-505)): 0.466 µM

Molecule: COc1cc(-c2cc(C(=O)N3[C@@H]4CC[C@H]3C[C@@H](C(=O)NCc3cccc(Cl)c3)C4)n[nH]2)c(F)cn1 [Example 160-B, (1R,3r,5S)—N-(3-chlorobenzyl)-8-(5-(5-fluoro-2-methoxypyridin-4-yl)-1H-pyrazole-3-carbonyl)-8-azabicyclo[3.2.1]octane-3-carboxamide]
- IC50 (UM-UC-9 engineered cells; Homo sapiens, UM-UC-9, 144 h): > 10 µM
- AC50 (His6-TEV-PPARγ-(234-505)): 14.2 µM

Molecule: COc1cc(-c2cc(C(=O)N3CCC(C(=O)N[C@@H](C)c4cccc(F)c4)CC3)n[nH]2)c(Cl)cn1 [Example 103, (8)-1-(5-(5-chloro-2-methoxypyridin-4-yl)-1H-pyrazole-3-carbonyl)-N-(1-(3-fluorophenyl)ethyl)piperidine-4-carboxamide]
- IC50 (UM-UC-9 engineered cells; Homo sapiens, UM-UC-9, 144 h): 0.32 µM
- AC50 (His6-TEV-PPARγ-(234-505)): 0.257 µM

Molecule: Cc1cc(-c2cc(C(=O)N3[C@@H]4CC[C@H]3C[C@H](C(=O)N[C@H]3CC[C@@](O)(C(F)(F)F)CC3)C4)n[nH]2)ncn1 [Example 279, (1R,3s,5S)—N-((1r,4R)-4-hydroxy-4-(trifluoromethyl)cyclohexyl)-8-(5-(6-methylpyrimidin-4-yl)-1H-pyrazole-3-carbonyl)-8-azabicyclo[3.2.1]octane-3-carboxamide]
- IC50 (UM-UC-9 engineered cells; Homo sapiens, UM-UC-9, 144 h): 0.29 µM
- AC50 (His6-TEV-PPARγ-(234-505)): 0.0246 µM
